Results on eight molecules are retold here after US9376470B2, “Polypeptide having angiogenesis-inducing activity and antibacterial activity, and use thereof for medical purposes” (FunPep Inc., priority 2008, dated 2016).

The test system of experiment [1] is Staphylococcus epidermidis JCM 2414. Put plainly: microbe, parasite or virus in culture. To be noted: 37° C., 20 hours; for MIC: Staphylococcus epidermidis, JCM2414. Type of experiment: cell-based. On the procedure: (§1) ATP (%) of the antibacterial activity was measured in the same manner as mentioned above, and the “minimum inhibitory concentration (MIC)” was measured as follows. MIC is the lowest concentration of an agent that may inhibit the growth of a bacterium. MIC is used as a parameter for the efficacy of an antibacterial agent, for the strength of bacterial sensitivity, or the like. The bacteria can grow (proliferate) when the concentration is not higher than MIC, and cannot grow when the concentration is higher than MIC. […] (CLSI), but, in this Example, its measurement was carried out by a broth microdilution method in accordance with “M100-S17/M7-A7” (Performance Standards for Antimicrobial Susceptibility Testing; Seventeenth Informational Supplement, Vol. 27 No. 1) published by CLSI on January, 2007. That is, sensitivity test of agents was carried out using a microtiter plate or test tubes. The bacteria were cultured in the liquid media for 4 to 6 hours, and thereafter absorbances at A600 were measured. Bacterial suspensions were diluted with Mueller-Hinton broth (MHB) according to McFarland #0.5. Each strain was added so as to attain about 10^5 CFU/ml (final concentration). Each peptide was prepared to an optional concentration, and the solutions were serially diluted from the concentration. The polypeptide at each concentration stage was added to a microplate or test tubes, and the bacterial suspension was added thereto. […] The plate was incubated at 37° C. for 20 hours, the lowest concentration where bacterial growth was inhibited was regarded as the minimum inhibitory concentration. With respect to each strain, Escherichia coli: ATCC 25922 (Escherichia coli ATCC 25922), Pseudomonas aeruginosa: ATCC 27853 (Pseudomonas aeruginosa ATCC 27853), Staphylococcus aureus: ATCC29213 (Staphylococcus aureus ATCC29213), Klebsiella pneumoniae: JCM 1662 (Klebsiella pneumoniae JCM 1662), enterobacteria (1): JCM 1232 (Enterobacter cloacae JCM 1232), enterobacteria (2): JCM 1235 (Enterobacter aerogenes JCM 1235), and Staphylococcus epidermidis: JCM 2414 (Staphylococcus epidermidis JCM 2414), were used. […] As the concentrations of the agents in ATP assay, the concentrations as described in the Tables were used.

Experiment [2] relates to Escherichia coli ATCC 25922. As to the kind of experiment: microbe, parasite or virus in culture. Type of experiment: cell-based. The settings on record: ATCC25922, 37° C., 20 hours. As for the experimental part:
as §1

The test system of experiment [3] is Staphylococcus aureus ATCC29213. As to the kind of experiment: microbe, parasite or virus in culture. The class given is cell-based. To be noted: 37° C., 20 hours. On the procedure: as §1
The test system of experiment [4] is Pseudomonas aeruginosa ATCC 27853. Put plainly: microbe, parasite or virus in culture. The class given is cell-based. To be noted: 37° C., 20 hours; for MIC: Pseudomonas aeruginosa, ATCC27853. As for the experimental part: as §1
Experiment [5] relates to Crl:CD (SD) rats, cut wound. Put plainly: Effect to heal cut wounds, rat cut-wound model. The settings on record: for wound closing tension: 10, 100 and 1000 μg/mL, 50 μL dropwise once a day, measured on day 6; for scars of cut wounds / cicatrization by visual observation, compared with the bFGF formulation: rat cut-wound model, data not shown. The class given is in vivo. On the procedure:
Next, using rat cut-wound model, the effect of the five polypeptides SR-1 to 5 to heal cut wounds in vivo was evaluated. As described in Tetsuaki Yamaura et al. (Oyo Yakuri (Pharmacometrics) 22, 565-579 (1981)), the rat cut-wound model was produced and the wound closing tension was measured. That is, a cut wound of 30 to 36 mm was made on the back of Crl:CD (SD) rats (male, 7-week old, obtained from Charles River Laboratories Japan, Inc.) using a safety razor, and sutured at 3 points equally spaced. The day when this surgical treatment was applied was regarded as […] (day 0). […] Additions of 50 μL physiological saline were regarded as negative controls (Saline). […] The sutures were removed day 3, and the wound closing tension was measured on day 6.

Experiment [6] relates to Crl:CD (SD) rats. Put plainly: Ability to form granulation tissue in paper disc model. Type of experiment: in vivo, rat. To be noted: 10 μg/disc (250 μg/mL×40 μl/disc), subcutaneous paper disc, eight days later. From the text: Then, the ability to form granulation tissue of five polypeptides SR-1 to 5 in vivo was studied. […] The prepared paper discs were embedded subcutaneously into the back of Crl:CD (SD) rats (male, 9-week old, obtained from Charles River Laboratories Japan, Inc.). Eight days later, the paper discs were taken out, and the granulation tissues around the paper discs were collected to determine their wet weight.

Experiment [7] concerns human vascular endothelial cells and fibroblast cells (co-culture, Angiogenesis Kit KZ-1000). To be noted: 10 μg/mL, length of lumina. As for the experimental part: Using AG30-5C as a positive control, the angiogenesis-inducing activity of SR-1 and SR-2 was measured. […] As a negative control, polypeptide-free group (Control) was used.
Cells were cultured at 37° C. under 5% CO2 in a 24-well plate using the special media to which the polypeptide was added. The medium was replaced with a medium containing the same polypeptide on day 4, day 7 and day 9 of culture. On day 11 from the beginning of the culture, the medium was removed and staining was performed using a kit for staining lumina (for CD31 antibody staining) according to the following procedure.
The primary antibody (mouse anti-human CD31 antibody) was 4000-fold diluted with a blocking solution (Dulbecco's phosphate buffered saline (PBS(−)) containing 1% BSA). To each well, 0.5 mL of this primary antibody solution was added, and the plate was incubated for 60 minutes at 37° C. After the completion of the incubation, each well was washed totally 3 times with 1 mL of the blocking solution.
Then, 0.5 mL of a secondary antibody solution (goat anti-mouse IgG/alkaline phosphatase conjugate) 500-fold diluted with the blocking solution was added to each well. The plate was incubated for 60 minutes at 37° C., and thereafter each well was washed 3 times with 1 mL of distilled water. During that period, 2 tablets of BCIP/NBT were dissolved into distilled water, and the obtained solution was filtered through a filter having a pore size of 0.2 μm to prepare a substrate solution. To each well, 0.5 mL of the prepared BCIP/NBT substrate solution was added, and the plate was incubated at 37° C. until the lumina turned to deep purple (typically for 5-10 minutes). After the completion of the incubation, each well was washed 3 times with 1 mL of distilled water. After washing, the washing solution was removed by aspiration, and the plate was left to stand and dry naturally. After drying, photographs of each well were taken under a microscope.
Each of the obtained images was quantified using an angiogenesis quantification software. Computer analysis was carried out on various parameters.

≈ marks a conversion by molar mass, not a printed value. Peptide text beside a SMILES is read from it.

Regarding `C[C@@H](O)[C@H]1C(=O)N2C(C(=O)O)=C(S[C@@H]3CN[C@H](C(=O)N(C)C)C3)[C@H](C)[C@H]12` [MEPM, meropenem, reference compound], the MIC in experiment [1] was 0.125 µg/mL (≈ 0.326 µM); in experiment [2], 0.008 to 0.06 µg/mL (≈ 0.0209 to 0.156 µM); in experiment [3] it was 0.03 to 0.12 µg/mL (≈ 0.0782 to 0.313 µM); in experiment [4], 0.25 to 1 µg/mL (≈ 0.652 to 2.61 µM).

As to `Cc1onc(-c2ccccc2)c1C(=O)N[C@@H]1C(=O)N2[C@@H]1SC(C)(C)[C@@H]2C(=O)O` [OX, oxacillin, reference compound], the MIC in experiment [1] and in experiment [3] was 0.12 to 0.5 µg/mL (≈ 0.299 to 1.25 µM) each time.

As to `CC[C@H](C)[C@H](NC(=O)[C@H](CC(C)C)NC(=O)[C@H](CCCCN)NC(=O)[C@H](CC(C)C)NC(=O)[C@@H](N)CCSC)C(=O)N[C@@H](Cc1ccccc1)C(=O)N[C@@H](CC(C)C)C(=O)N[C@@H](Cc1c[nH]cn1)C(=O)N[C@@H](CCCNC(=N)N)C(=O)N[C@@H](CC(C)C)C(=O)N[C@@H](CCCCN)C(=O)N[C@@H](CCCNC(=N)N)C(=O)N[C@@H](CCSC)C(=O)N[C@@H](CCCNC(=N)N)C(=O)N[C@@H](CCCCN)C(=O)N[C@@H](CCCNC(=N)N)C(=O)N[C@@H](CC(C)C)C(=O)N[C@@H](CCCCN)C(=O)N[C@@H](CCCNC(=N)N)C(=O)N[C@@H](CCCCN)C(=O)O` [SR-1] (H-MLKLIFLHRLKRMRKRLKRK-OH; N-terminus assumed), in experiment [5], the wound closing tension result is “effect of increasing the wound closing tension” and the “scars of cut wounds / cicatrization by visual observation, compared with the bFGF formulation” value is “cicatrization was hardly observed”. Further, the “MIC Staphylococcus epidermidis” value in experiment [1] was 128< μg/mL. For the same molecule, the granulation tissue weight result in experiment [6] is on record as “largest increase in the granulation tissue weight”. In addition, the “angiogenesis-inducing activity compared with AG30-5C” value in experiment [7] was “higher than AG30-5C”.

Turning to `CC(C)C[C@H](NC(=O)[C@H](CCCCN)NC(=O)[C@H](CCCNC(=N)N)NC(=O)[C@H](CCCCN)NC(=O)[C@H](CC(C)C)NC(=O)[C@H](CCCNC(=N)N)NC(=O)[C@H](CCCCN)NC(=O)[C@H](CCCNC(=N)N)NC(=O)[C@H](CC(C)C)NC(=O)[C@H](CCCNC(=N)N)NC(=O)[C@H](CCCNC(=N)N)NC(=O)[C@H](CCCCN)NC(=O)[C@H](CC(C)C)NC(=O)[C@H](CCCNC(=N)N)NC(=O)[C@H](Cc1c[nH]cn1)NC(=O)[C@H](CC(C)C)NC(=O)[C@H](Cc1ccccc1)NC(=O)[C@H](CCCNC(=N)N)NC(=O)[C@H](CC(C)C)NC(=O)[C@@H](N)CCC(=O)O)C(=O)N[C@@H](CCCNC(=N)N)C(N)=O` [SR-2] (H-ELRFLHRLKRRLRKRLKRKLR-NH2; N-terminus assumed), in experiment [5], the “scars of cut wounds / cicatrization by visual observation, compared with the bFGF formulation” value is “cicatrization was hardly observed”. Further, the “angiogenesis-inducing activity compared with AG30-5C” value in experiment [7] is on record as “higher than AG30-5C”.

As for `CSCC[C@H](NC(=O)[C@H](CCCNC(=N)N)NC(=O)[C@H](CCCCN)NC(=O)[C@H](CC(C)C)NC(=O)[C@H](CCCNC(=N)N)NC(=O)[C@H](Cc1c[nH]cn1)NC(=O)[C@H](CC(C)C)NC(=O)[C@H](Cc1ccccc1)NC(=O)[C@H](CCCNC(=N)N)NC(=O)[C@H](CC(C)C)NC(=O)[C@@H](N)CCC(=O)O)C(=O)N[C@@H](CCCNC(=N)N)C(=O)N[C@@H](CCCCN)C(=O)N[C@@H](CCCNC(=N)N)C(=O)N[C@@H](CC(C)C)C(=O)N[C@@H](CCCCN)C(=O)N[C@@H](CCCNC(=N)N)C(=O)N[C@@H](CCCCN)C(=O)N[C@@H](CC(C)C)C(=O)N[C@@H](CCCNC(=N)N)C(N)=O` [SR-3] (H-ELRFLHRLKRMRKRLKRKLR-NH2; N-terminus assumed), in experiment [5], the wound closing tension result is recorded as “effect of increasing the wound closing tension” and the “scars of cut wounds / cicatrization by visual observation, compared with the bFGF formulation” value is reported as “cicatrization was hardly observed”. Besides, the granulation tissue weight result in experiment [6] is given as “largest increase in the granulation tissue weight”.

Take `CC[C@H](C)[C@H](NC(=O)[C@H](CC(C)C)NC(=O)[C@@H](N)CCCCN)C(=O)N[C@@H](Cc1ccccc1)C(=O)N[C@@H](CC(C)C)C(=O)N[C@@H](Cc1c[nH]cn1)C(=O)N[C@@H](CCCNC(=N)N)C(=O)N[C@@H](CC(C)C)C(=O)N[C@@H](CCCCN)C(=O)N[C@@H](CCCNC(=N)N)C(=O)N[C@@H](CCSC)C(=O)N[C@@H](CCCNC(=N)N)C(=O)N[C@@H](CCCCN)C(=O)N[C@@H](CCCNC(=N)N)C(=O)N[C@@H](CC(C)C)C(=O)N[C@@H](CCCCN)C(=O)N[C@@H](CCCNC(=N)N)C(=O)N[C@@H](CCCCN)C(=O)N[C@@H](CC(C)C)C(=O)N[C@@H](CCCNC(=N)N)C(N)=O` [SR-4] (H-KLIFLHRLKRMRKRLKRKLR-NH2; N-terminus assumed): in experiment [5], the wound closing tension result is listed as “effect of increasing the wound closing tension” and the “scars of cut wounds / cicatrization by visual observation, compared with the bFGF formulation” value is listed as “cicatrization was hardly observed”.

`CSCC[C@H](NC(=O)[C@H](CCCNC(=N)N)NC(=O)[C@@H](N)CCCCN)C(=O)N[C@@H](CCCNC(=N)N)C(=O)N[C@@H](CCCCN)C(=O)N[C@@H](CCCNC(=N)N)C(=O)N[C@@H](CC(C)C)C(=O)N[C@@H](CCCCN)C(=O)N[C@@H](CCCNC(=N)N)C(=O)N[C@@H](CCCCN)C(=O)N[C@@H](CC(C)C)C(=O)N[C@@H](CCCNC(=N)N)C(=O)N[C@@H](CC(C)C)C(=O)N[C@@H](Cc1c[nH]c2ccccc12)C(=O)N[C@@H](Cc1c[nH]cn1)C(=O)N[C@@H](CCCNC(=N)N)C(=O)N[C@@H](CCCCN)C(=O)N[C@@H](CCCNC(=N)N)C(=O)N[C@@H](Cc1ccc(O)cc1)C(=O)N[C@@H](CCCCN)C(=O)O` [SR-5] (H-KRMRKRLKRKLRLWHRKRYK-OH; N-terminus assumed): the wound closing tension result in experiment [5] is reported as “effect of increasing the wound closing tension”. Besides, the “MIC Pseudomonas aeruginosa” value in experiment [4] was 128≦ μg/mL.

Turning to `NC[C@H]1O[C@H](O[C@H]2[C@H](O)[C@@H](O[C@H]3O[C@H](CO)[C@@H](O)[C@H](N)[C@H]3O)[C@H](N)C[C@@H]2N)[C@H](N)C[C@@H]1O` [TOB, tobramycin, reference compound], the MIC in experiment [1] is 1 µg/mL (≈ 2.14 µM); in experiment [2], 0.25 to 1 µg/mL (≈ 0.535 to 2.14 µM); in experiment [3] it was 0.12 to 1 µg/mL (≈ 0.257 to 2.14 µM); in experiment [4], 0.25 to 1 µg/mL (≈ 0.535 to 2.14 µM).
